PubChem BioAssay AID2060622 (Molecular Pharmacology Branch, DTP, NCI, 2025)
Values belong to the compound of their own block, whether it stands above or below them.

Tested on: 242566-281-R-J2-PDC complex spheroid viability
Assay: Anticancer human tumor 242566-281-R-J2-PDC patient-derived pancreatic carcinoma cell line growth inhibition [CLK]
Conditions: for IC50: curve of first compound; for viability, T/C: stronger effect = lower value
Text: A high-throughput screen of multi-cell type tumor spheroids was designed to identify active combinations of […] and targeted small molecules. Complex spheroids include a stromal component modeled by human endothelial cells (HUVEC) and fibroblasts modeled by human mesenchymal stem cells (MSCs). The concentration ranges selected for each drug and investigational agent were based upon clinically achievable concentrations if the clinical Cmax of the agent was known.
Compounds. The drugs and investigational agents: cirtuvivint (SM08502; NSC835563), CC-671 (NSC850746), vemurafenib (NSC761431), tapotoclax (NSC804041), sotorasib (NSC818433), adagrasib (NSC831453), MRTX-1133 (NSC836407), BAY2416964 (NSC825713), copanlisib (NSC816437), inavolisib (NSC800729), abemaciclib (NSC768073), osimertinib (NSC779217), entinostat (NSC756642), eltanexor (KPT-8602, NSC794443), venetoclax (NSC766270), ceralasertib (NSC777638), bortezomib (NSC756655), olaparib (NSC753686), talazoparib (NSC767125), alisertib (NSC759677), peposertib (NSC802822), gemcitabine (NSC613327), 5-fluorouracil (NSC19893), SN-38 (NSC673596), oxaliplatin (NSC266046), paclitaxel (NSC125973), and doxorubicin (NSC123127), were obtained from the National Cancer Institute (NCI) Developmental Therapeutics Program Chemical Repository. The FDA-approved anticancer drug set is available from the Developmental Therapeutics Program at https://dtp.cancer.gov/organization/dscb/obtaining/available plates.htm. […] The stock solutions were prepared in dimethyl sulfoxide (DMSO, Sigma-Aldrich, St. Louis, MO, cat. D2650), except for the platinum complexes which were prepared in saline (Quality Biological, Gaithersburg, MD, cat. 114-055-101), at 800-fold the tested concentration and stored at -70 degrees C prior to their use. All drugs and investigational agents were tested over a range starting from a high concentration at or near the clinical Cmax and decreasing in half-log increments. If the clinical Cmax for an agent had not been determined, the highest concentration tested was 10 microM.
Cell Culture. All cells were maintained in an incubator at 37 degrees C and 5% CO2 with 95% humidity. The PDC lines were cultured according to standard operating procedures established by the NCI PDMR. Briefly, all PDCs were thawed and cultured in Matrigel-coated flasks prepared with a working solution of 1X Ham's F-12 nutrient mix, without supplementation (Invitrogen, Waltham, MA, cat. 11765054), 100 U/mL penicillin-streptomycin (Invitrogen, cat. 15140122), and 2.5% Matrigel (Corning Inc., Corning, NY, cat. 354248) for the first three passages. The 947758-054-R-J2-PDC line was cultured in 6B/Colon 1A media, which includes advanced DMEM/F-12 (Thermo Fisher Scientific, cat. 12634028), 10 mM HEPES (Thermo Fisher Scientific, cat. 15630080), 1X GlutaMAX supplement (Thermo Fisher Scientific, cat. 35050061), 0.1 mg/mL primocin (InvivoGen, cat. ant-pm-2), 10% defined fetal bovine serum, heat inactivated (HyClone Laboratories Inc., cat. SH30070.03HI), 1.25 mM N-Acetyl-L-cysteine (Sigma-Aldrich, cat. A9165), 10 mM nicotinamide (Sigma-Aldrich, cat. N0636), 1X B-27 supplement (Thermo Fisher Scientific, cat. 17504044), 1X N-2 supplement (Thermo Fisher Scientific, cat. 17502048), and 10 microM Y-27632 dihydrochloride (Tocris Bioscience, cat. 1254). The 876862-298-R-J1-PDC was cultured in 6E media, which includes all 6B/Colon 1A media components plus 50% L-WRN conditioned media (ATCC, cat. CRL-3276), 50 ng/mL recombinant human EGF recombinant protein (hEGF; Thermo Fisher Scientific, cat. PHG0311), 10 ng/mL recombinant human fibroblast growth factor 10 (hGFG-10; PeproTech, cat. 100-26), 1 ng/mL recombinant human fibroblast growth factor 2 (hFGF-2; PeproTech, cat. 100-18B), and 1 µM prostaglandin E2 (PGE2; Tocris, cat. 2296). The 227483-062-R1-J1-PDC line was cultured in Panc media, containing all 6E components except hFGF-2, with the addition of 500 nM SB-431542 (Selleckchem, cat. S1067) and 10 nM gastrin (Tocris, cat. 3006). […]
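Further: spheroids exposed to compounds for 7 days before readout.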
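Wherever viability, T/C is given: 100% = DMSO vehicle control wells.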

IC50 (second compound 0.0316 µM): > 3000 nM
IC50 (second compound 0.1 µM): > 3000 nM
IC50 (second compound 0.316 µM): 1980 nM
IC50 (second compound 1 µM): 758 nM
IC50 (second compound 3.16 µM): 409 nM
IC50 (second compound 10 µM): 308 nM
SMILES: NC(=O)C(=Cn1cnc(-c2cc(C(F)(F)F)cc(C(F)(F)F)c2)n1)c1cncnc1 + CNC(=O)c1ccc(Nc2nc(OC3CCCC3)c3c(-c4ccc5nc(C)oc5c4)c[nH]c3n2)c(OC)c1
viability, T/C (second compound 0.0316 µM, first compound 0.00949 µM): 119%
viability, T/C (second compound 0.0316 µM, first compound 0.03 µM): 129%
viability, T/C (second compound 0.0316 µM, first compound 0.0949 µM): 128%
viability, T/C (second compound 0.0316 µM, first compound 0.3 µM): 141%
viability, T/C (second compound 0.0316 µM, first compound 0.949 µM): 109%
viability, T/C (second compound 0.0316 µM, first compound 3 µM): 57.1%
viability, T/C (second compound 0.1 µM, first compound 0.00949 µM): 109%
viability, T/C (second compound 0.1 µM, first compound 0.03 µM): 125%
viability, T/C (second compound 0.1 µM, first compound 0.0949 µM): 130%
viability, T/C (second compound 0.1 µM, first compound 0.3 µM): 129%
viability, T/C (second compound 0.1 µM, first compound 0.949 µM): 98%
viability, T/C (second compound 0.1 µM, first compound 3 µM): 51.1%
viability, T/C (second compound 0.316 µM, first compound 0.00949 µM): 106%
viability, T/C (second compound 0.316 µM, first compound 0.03 µM): 91.5%
viability, T/C (second compound 0.316 µM, first compound 0.0949 µM): 117%
viability, T/C (second compound 0.316 µM, first compound 0.3 µM): 122%
viability, T/C (second compound 0.316 µM, first compound 0.949 µM): 69.1%
viability, T/C (second compound 0.316 µM, first compound 3 µM): 39.2%
viability, T/C (second compound 1 µM, first compound 0.00949 µM): 87.2%
viability, T/C (second compound 1 µM, first compound 0.03 µM): 99.1%
viability, T/C (second compound 1 µM, first compound 0.0949 µM): 87.2%
viability, T/C (second compound 1 µM, first compound 0.3 µM): 86.4%
viability, T/C (second compound 1 µM, first compound 0.949 µM): 41.2%
viability, T/C (second compound 1 µM, first compound 3 µM): 12.4%
viability, T/C (second compound 3.16 µM, first compound 0.00949 µM): 77.4%
viability, T/C (second compound 3.16 µM, first compound 0.03 µM): 82.6%
viability, T/C (second compound 3.16 µM, first compound 0.0949 µM): 78.3%
viability, T/C (second compound 3.16 µM, first compound 0.3 µM): 57.9%
viability, T/C (second compound 3.16 µM, first compound 0.949 µM): 25.8%
viability, T/C (second compound 3.16 µM, first compound 3 µM): 5.98%
viability, T/C (second compound 10 µM, first compound 0.00949 µM): 72.5%
viability, T/C (second compound 10 µM, first compound 0.03 µM): 70.6%
viability, T/C (second compound 10 µM, first compound 0.0949 µM): 71.8%
viability, T/C (second compound 10 µM, first compound 0.3 µM): 49.8%
viability, T/C (second compound 10 µM, first compound 0.949 µM): 17.3%
viability, T/C (second compound 10 µM, first compound 3 µM): 4.4%

SMILES: Nc1ccn(C2OC(CO)C(O)C2(F)F)c(=O)n1 (centres undefined) + CN1CCN(c2cc(C(=O)Nc3cc4cc(-c5cnn(C)c5)ccc4cn3)ccn2)CC1
IC50 (second compound 0.0316 µM): < 31.6 nM
IC50 (second compound 0.1 µM): < 31.6 nM
IC50 (second compound 0.316 µM): < 31.6 nM
IC50 (second compound 1 µM): < 31.6 nM
IC50 (second compound 3.16 µM): < 31.6 nM
IC50 (second compound 10 µM): < 31.6 nM
viability, T/C (second compound 0.0316 µM, first compound 0.0316 µM): 46.6%
viability, T/C (second compound 0.0316 µM, first compound 0.1 µM): 20.6%
viability, T/C (second compound 0.0316 µM, first compound 0.316 µM): 10.6%
viability, T/C (second compound 0.0316 µM, first compound 1 µM): 13.3%
viability, T/C (second compound 0.0316 µM, first compound 3.16 µM): 8.86%
viability, T/C (second compound 0.0316 µM, first compound 10 µM): 6.79%
viability, T/C (second compound 0.1 µM, first compound 0.0316 µM): 48.6%
viability, T/C (second compound 0.1 µM, first compound 0.1 µM): 15.4%
viability, T/C (second compound 0.1 µM, first compound 0.316 µM): 10.2%
viability, T/C (second compound 0.1 µM, first compound 1 µM): 6.87%
viability, T/C (second compound 0.1 µM, first compound 3.16 µM): 6.64%
viability, T/C (second compound 0.1 µM, first compound 10 µM): 5.01%
viability, T/C (second compound 0.316 µM, first compound 0.0316 µM): 23.9%
viability, T/C (second compound 0.316 µM, first compound 0.1 µM): 15.3%
viability, T/C (second compound 0.316 µM, first compound 0.316 µM): 10.9%
viability, T/C (second compound 0.316 µM, first compound 1 µM): 4.57%
viability, T/C (second compound 0.316 µM, first compound 3.16 µM): 4.57%
viability, T/C (second compound 0.316 µM, first compound 10 µM): 3.01%
viability, T/C (second compound 1 µM, first compound 0.0316 µM): 4.38%
viability, T/C (second compound 1 µM, first compound 0.1 µM): 4.08%
viability, T/C (second compound 1 µM, first compound 0.316 µM): 3.98%
viability, T/C (second compound 1 µM, first compound 1 µM): 4.09%
viability, T/C (second compound 1 µM, first compound 3.16 µM): 4.15%
viability, T/C (second compound 1 µM, first compound 10 µM): 3.45%
viability, T/C (second compound 3.16 µM, first compound 0.0316 µM): 7.21%
viability, T/C (second compound 3.16 µM, first compound 0.1 µM): 6.5%
viability, T/C (second compound 3.16 µM, first compound 0.316 µM): 5.9%
viability, T/C (second compound 3.16 µM, first compound 1 µM): 5.48%
viability, T/C (second compound 3.16 µM, first compound 3.16 µM): 5.49%
viability, T/C (second compound 3.16 µM, first compound 10 µM): 5.8%
viability, T/C (second compound 10 µM, first compound 0.0316 µM): 1.62%
viability, T/C (second compound 10 µM, first compound 0.1 µM): 1.77%
viability, T/C (second compound 10 µM, first compound 0.316 µM): 1.12%
viability, T/C (second compound 10 µM, first compound 1 µM): 1.8%
viability, T/C (second compound 10 µM, first compound 3.16 µM): 1.55%
viability, T/C (second compound 10 µM, first compound 10 µM): 1.05%
